Assays:
JAK2 kinase domain = target: T1, JAK2 kinase domain (Homo sapiens, UniProt O60674); assay: Biochemical assay for inhibitors of JAK kinase activity (JAK2, 33P-γ-ATP/dowex resin); conditions: JAK2 kinase domain 1 nM, 60 μM ATP
T1 construct: commercially available JAK2 kinase domain; purchased Invitrogen, Eugene, Oreg
Description: Biochemical Assay for Inhibitors of JAK Kinase Activity
(§1) Specific JAK2, JAK1 or JAK3 peptide substrates are trans-phosphorylated by JAK kinases in the presence of ATP traced with 33P-γ-ATP. At the end of the phosphorylation reaction, the unreacted ATP, cold and radioactive, is captured by an excess of dowex ion exchange resin that eventually settles by gravity to the bottom of the reaction plate. The supernatant is subsequently withdrawn and transferred into a counting plate that is then evaluated by β-counting.
500 g of wet resin (SIGMA, custom prepared resin DOWEX 1×8 200-400 mesh, 2.5 Kg) are weighed out and diluted 2 to 1 in 150 mM sodium formate, pH 3.00. The resin is allowed to settle down overnight and then the supernatant is discarded. After three washes as above over a couple of days, the resin is allowed to settle and two volumes (with respect to the resin volume) of 150 mM sodium formate buffer are added.
Kinase buffer was composed of 50 mM HEPES pH 7.5 containing 10 mM MgCl2, 2.5 mM DTT, 10 μM Na3VO4 and 0.2 mg/mL BSA.
JAK2 Specific Assay Conditions
The JAK2 kinase assay was run with a final enzyme concentration of 1 nM, in the presence of 60 μM ATP, 3 nM 33P-γ-ATP and 64 μM of substrate BioDBn*306 (Aminoacid sequence: LPLDKDYYVVREPGQ—SEQ ID NO: 1). The peptidic substrate was purchased from American Peptide Company (Sunnyvale, Calif.).
(§2) For IC50 determination, test compounds are received as a 1 mM solution in 100% DMSO, distributed into 96 well plates: compounds are then plated into the first column of a microtiter plate (A1 to G1), 100 μL/well.
(§3) An automated station for serial dilutions (Biomek FX, Beckman) is used for producing 1:3 dilutions in 100% DMSO, from line A1 to A10, and for all the compounds in the column. Moreover, 4-5 copies of daughter plates are prepared by reformatting 5 μL of this first set of 100% DMSO dilution plates into 384 deep well-plates: one of these plates with the serial dilutions of test compounds will be thawed the day of the experiments, reconstituted at a 3× concentration with water and used in the IC50 determination assays. In a standard experiment, the highest concentration (3×) of all compounds is 30 μM, while the lowest one is 1.5 nM. Each 384 well-plate will contain at least one curve of the standard inhibitor staurosporine and reference wells (total enzyme activity vs. no enzymatic activity) for the Z′ and signal to background evaluation.
384-well plates, V bottom (test plates) are prepared with 5 μL of the compound dilution (3×) and then placed onto a PlateTrak 12 robotized station (Perkin Elmer; the robot has one 384-tip pipetting head for starting the assay plus one 96-tip head for dispensing the resin) together with one reservoir for the Enzyme mix (3×) and one for the ATP mix (3×). At the start of the run, the robot aspirates 5 μL of ATP mix, makes an air gap inside the tips (3 μl) and aspirates 5 μL of JAK2 mix. The following dispensation into the plates plus 3 cycles of mixing, done by the robot itself, starts the kinase reaction. At this point, the correct concentrations are restored for all the reagents. The robot incubates the plates for 60 minutes at room temperature, and then stops the reaction by pipetting 60 μL of dowex resin suspension into the reaction mix. In order to avoid tip clogging, wide bore tips are used to dispense the resin suspension. Three cycles of mixing are done immediately after the addition of the resin. Another mixing cycle is performed after all the plates are stopped, this time using normal tips: the plates are then allowed to rest for about one hour in order to allow resin sedimentation. At this point, 27 μL of the supernatant are transferred into 384-Optiplates (Perkin-Elmer), with 50 μL of Microscint 40 (Perkin-Elmer); after 5 min of orbital shaking the plates are read on a Perkin-Elmer Top Count radioactivity counter. […]

[1] = tested on: JAK2 dependent human megakaryoblastic leukemia cell line SET-2; assay: Cell proliferation assay (CellTiter-Glo, 72 hours); format: cell-based; conditions: Homo sapiens, SET-2 cells
Procedure: The JAK2 dependent human megakaryoblastic leukemia cell line SET-2 (DSMZ, Braunschweig GERMANY) and the JAK2 independent human chronic myelogenous leukaemia cell line K562 (ECACC, Wiltshire, UK) were cultured in RPMI-1640 medium-Glutamax (Gibco BRL, Gaithesburg, Md., USA), supplemented with 10% fetal bovine serum (FBS) at 37° C. and 5% CO2.
Cell Proliferation Assay:
Approximately 5×10^3 cells were plated into 384 microtiter plate wells in 50 μL of growth media with different concentrations of inhibitors. The cells were incubated at 37° C. and 5% CO2 for 72 hours, then the plates were processed using CellTiter-Glo assay (Promega, Madison, Wis., USA) following the manufacturer's instruction. Briefly 25 μL/well reagent solution is added to each well and after 5 minutes shaking the micro-plates are read by Envision luminometer (PerkinElmer, Waltham, Mass., USA).
Data are analyzed by Symix Assay Explorer software (Symix Technologies Inc.) that provides sigmoidal fitting algorithm of the 8 points dilutions curves for IC50 determination.

Lyn full length = target: T2, Lyn full length (Homo sapiens, UniProt P07948); assay: Biochemical assay for inhibitors of Lyn (Src family) kinase activity; conditions: Lyn full length 1 nM, 25 μM ATP
T2 construct: The assay has been performed using Lyn full length
Description: Biochemical Assay for Inhibitors of Lck and Lyn (Src Family) Kinases Activity
as §1, with “Lck and Lyn” for “JAK2, JAK1 or JAK3 peptide”, “Lck and Lyn” for “JAK”
Lyn Specific Assay Conditions
The assay has been performed using Lyn full length (accession number P07948 of UniProtKB/Swiss-Prot database).
Kinase buffer was composed of 50 mM HEPES pH 7.5 containing 3 mM MgCl2, 1 mM DTT, 3 μM Na3VO4, and 0.2 mg/mL BSA.
The Lyn kinase assay was run with a final enzyme concentration of 1 nM, in the presence of 25 μM ATP, 1.5 nM 33P-γ-ATP and 250 μM of substrate ABI 1 (Aminoacid sequence: EAIYAAPFAKKK—SEQ ID NO: 3). The peptidic substrate was purchased from American Peptide Company (Sunnyvale, Calif.).
as §2, §3
384-well plates, V bottom (test plates) are prepared with 5 μL of the compound dilution (3×) and then placed onto a PlateTrak 12 robotized station (Perkin Elmer; the robot has one 384-tip pipetting head for starting the assay plus one 96-tip head for dispensing the resin) together with one reservoir for the Enzyme mix (3×) and one for the ATP mix (3×). At the start of the run, the robot aspirates 5 μL of ATP mix, makes an air gap inside the tips (3 μl) and aspirates 5 μL of JAK2 mix. The following dispensation into the plates plus 3 cycles of mixing, done by the robot itself, starts the kinase reaction. At this point, the correct concentrations are restored for all the reagents. The robot incubates the plates for 60 minutes at room temperature, and then stops the reaction by pipetting 60 μL of dowex resin suspension into the reaction mix. In order to avoid tip clogging, wide bore tips are used to dispense the resin suspension. Three cycles of mixing are done immediately after the addition of the resin. Another mixing cycle is performed after all the plates are stopped, this time using normal tips: the plates are then allowed to rest for about one hour in order to allow resin sedimentation. At this point, 27 μL of the supernatant are transferred into 384-Optiplates (Perkin-Elmer), with 50 μL of Microscint 40 (Perkin-Elmer); after 5 min of orbital shaking the plates are read on a Perkin-Elmer Top Count radioactivity counter.
Data are analyzed by an internally customized version of the SW package “Assay Explorer” that provides sigmoidal fitting of the ten-dilutions curves for IC50 determination in the secondary assays/hit confirmation routines.

T2 sequence (P07948 whole entry): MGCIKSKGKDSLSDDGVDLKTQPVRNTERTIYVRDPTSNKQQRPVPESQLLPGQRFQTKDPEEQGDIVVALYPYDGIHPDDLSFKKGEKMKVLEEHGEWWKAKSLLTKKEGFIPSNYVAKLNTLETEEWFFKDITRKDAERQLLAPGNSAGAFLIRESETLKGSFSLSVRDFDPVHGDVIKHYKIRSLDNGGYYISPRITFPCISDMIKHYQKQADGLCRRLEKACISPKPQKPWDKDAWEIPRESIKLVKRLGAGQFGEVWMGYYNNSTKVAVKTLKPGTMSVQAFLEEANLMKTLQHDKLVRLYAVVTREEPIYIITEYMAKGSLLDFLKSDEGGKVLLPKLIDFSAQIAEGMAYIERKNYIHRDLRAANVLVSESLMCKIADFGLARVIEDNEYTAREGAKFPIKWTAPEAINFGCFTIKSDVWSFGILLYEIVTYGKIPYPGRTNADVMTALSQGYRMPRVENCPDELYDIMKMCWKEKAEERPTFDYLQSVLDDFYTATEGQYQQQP
T1 sequence (O60674 849-1124 limits assumed): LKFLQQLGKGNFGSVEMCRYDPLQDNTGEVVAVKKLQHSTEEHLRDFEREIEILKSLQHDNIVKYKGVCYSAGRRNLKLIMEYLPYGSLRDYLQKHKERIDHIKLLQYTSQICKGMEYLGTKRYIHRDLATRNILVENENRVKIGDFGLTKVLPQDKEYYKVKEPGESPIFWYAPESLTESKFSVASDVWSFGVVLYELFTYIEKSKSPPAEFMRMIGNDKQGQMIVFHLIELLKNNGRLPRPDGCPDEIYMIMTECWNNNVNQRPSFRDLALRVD

SMILES	IC50 (JAK2 kinase domain) [nM]	IC50 [1] [nM]	IC50 (Lyn full length) [nM]
Cc1ccc(Cl)cc1-c1[nH]c(-c2nc(N)ncc2C#Cc2cccc(O)c2)cc1C(N)=O [compound 2, 5-{2-Amino-5-[(3-hydroxyphenyl)ethynyl]pyrimidin-4-yl}-2-(5-chloro-2-methylphenyl)-1H-pyrrole-3-carboxamide]	2	520	6
Cc1ccc(Cl)cc1-c1[nH]c(-c2nc(N)ncc2C#Cc2ccccc2N)cc1C(N)=O [compound 6, 5-{2-Amino-5-[(2-aminophenyl)ethynyl]pyrimidin-4-yl}-2-(5-chloro-2-methylphenyl)-1H-pyrrole-3-carboxamide]	1	240	3
Cc1ccc(Cl)cc1-c1[nH]c(-c2nc(N)ncc2C#Cc2ccc(N)cc2)cc1C(N)=O [compound 8, 5-{2-Amino-5-[(4-aminophenyl)ethynyl]pyrimidin-4-yl}-2-(5-chloro-2-methylphenyl)-1H-pyrrole-3-carboxamide]	1	140	2
COc1ccc(N)cc1C#Cc1cnc(N)nc1-c1cc(C(N)=O)c(-c2cc(Cl)ccc2C)[nH]1 [compound 9, 5-{2-Amino-5-[(5-amino-2-methoxyphenyl)ethynyl]pyrimidin-4-yl}-2-(5-chloro-2-methylphenyl)-1H-pyrrole-3-carboxamide]	1	340	10
Cc1ccc(Cl)cc1-c1[nH]c(-c2nc(N)ncc2C#Cc2cccc(NC3CCOCC3)c2)cc1C(N)=O [compound 13, 5-(2-Amino-5-{[3-(tetrahydro-2H-pyran-4-ylamino)phenyl]ethynyl}pyrimidin-4-yl)-2-(5-chloro-2-methylphenyl)-1H-pyrrole-3-carboxamide]	4	–	8
COc1ccc(NC2CCN(C)CC2)cc1C#Cc1cnc(N)nc1-c1cc(C(N)=O)c(-c2cc(Cl)ccc2C)[nH]1 [compound 22, 5-[2-Amino-5-({2-methoxy-5-[(1-methylpiperidin-4-yl)amino]phenyl}ethynyl)pyrimidin-4-yl]-2-(5-chloro-2-methylphenyl)-1H-pyrrole-3-carboxamide]	2	430	9
Cc1ccc(Cl)cc1-c1[nH]c(-c2nc(N)ncc2C#Cc2ccc(N3CCC(O)CC3)cc2)cc1C(N)=O [compound 28, 5-(2-Amino-5-{[4-(4-hydroxypiperidin-1-yl)phenyl]ethynyl}pyrimidin-4-yl)-2-(5-chloro-2-methylphenyl)-1H-pyrrole-3-carboxamide]	1	330	1

More lines, in order of falling IC50 (JAK2 kinase domain), values ahead:

IC50 (JAK2 kinase domain) [nM]	IC50 [1] [nM]	IC50 (Lyn full length) [nM]	SMILES
4	90	8	Cc1ccc(Cl)cc1-c1[nH]c(-c2nc(N)ncc2C#Cc2ccc(N3CCN(C)CC3)cc2)cc1C(N)=O [compound 11, 5-(2-Amino-5-{[4-(4-methylpiperazin-1-yl)phenyl]ethynyl}pyrimidin-4-yl)-2-(5-chloro-2-methylphenyl)-1H-pyrrole-3-carboxamide]
2	240	5	Cc1ccc(Cl)cc1-c1[nH]c(-c2nc(N)ncc2C#Cc2cccc(NCCO)c2)cc1C(N)=O [compound 15, 5-[2-Amino-5-({3-[(2-hydroxyethyl)amino]phenyl}ethynyl)pyrimidin-4-yl]-2-(5-chloro-2-methylphenyl)-1H-pyrrole-3-carboxamide]
2	330	5	Cc1ccc(Cl)cc1-c1[nH]c(-c2nc(N)ncc2C#Cc2cccc(CN3CCN(C)CC3)c2)cc1C(N)=O [compound 24, 5-[2-Amino-5-({3-[(4-methylpiperazin-1-yl)methyl]phenyl}ethynyl)pyrimidin-4-yl]-2-(5-chloro-2-methylphenyl)-1H-pyrrole-3-carboxamide]
2	170	10	Cc1ccc(Cl)cc1-c1[nH]c(-c2nc(N)ncc2C#Cc2ccc(N3CCC(N4CCN(C)CC4)CC3)cc2)cc1C(N)=O [compound 25, 5-[2-Amino-5-({4-[4-(4-methylpiperazin-1-yl)piperidin-1-yl]phenyl}ethynyl)pyrimidin-4-yl]-2-(5-chloro-2-methylphenyl)-1H-pyrrole-3-carboxamide]
1	150	1	Cc1ccc(Cl)cc1-c1[nH]c(-c2nc(N)ncc2C#Cc2cccc(N)c2)cc1C(N)=O [compound 4, 5-{2-amino-5-[(3-aminophenyl)ethynyl]pyrimidin-4-yl}-2-(5-chloro-2-methylphenyl)-1H-pyrrole-3-carboxamide]
1	580	1	Cc1ccc(Cl)cc1-c1[nH]c(-c2nc(N)ncc2C#Cc2cccc(C(=O)N3CCN(C)CC3)c2)cc1C(N)=O [compound 27, 5-[2-Amino-5-({3-[(4-methylpiperazin-1-yl)carbonyl]phenyl}ethynyl)pyrimidin-4-yl]-2-(5-chloro-2-methylphenyl)-1H-pyrrole-3-carboxamide]
